What all share (assay): NCI 60 cell panel SRB screen
Holding throughout (format): cell-based

Assay [1] concerns A549/ATCC. Conditions: Homo sapiens; for activity at 10 µM: single dose 10 μM, read-out: percent cell growth promotion; for GI50 / IC (TGI) / LC50 (concentration killing 50% of cells): 5 log dose; for LC50 (concentration killing 50% of cells): 48 h.
Assay [2] relates to SF-295. Conditions: Homo sapiens; for activity at 10 µM: SF-295, single dose 10 μM, read-out: percent cell growth promotion; for GI50 / IC (TGI) / CC50: SF-295, 5 log dose; for CC50: 48 h, read-out: LC50 (the source's name).
The subject of assay [3] is MALME-3M. The following applies: Homo sapiens; for activity at 10 µM / GI50 / IC (TGI): Malme-3M; for activity at 10 µM: read-out: percent cell growth promotion; for IC (TGI): read-out: TGI; for CC50: MALME-3M, 5 log dose, 48 h, read-out: LC50 (the source's name).
The test system of assay [4] is M14. The following applies: Homo sapiens; for activity at 10 µM: M14, read-out: percent cell growth promotion; for GI50: M14; for IC (TGI): M14, read-out: TGI; for CC50: M14, 5 log dose, 48 h, read-out: LC50 (the source's name).
Assay [5] concerns SK-MEL-5. Conditions: Homo sapiens; for activity at 10 µM: SK-MEL-5, read-out: percent cell growth promotion; for GI50: SK-MEL-5; for IC (TGI): SK-MEL-5, read-out: TGI; for CC50: SK-MEL-5, 5 log dose, 48 h, read-out: LC50 (the source's name).
The subject of assay [6] is OVCAR-3. Conditions: Homo sapiens; for activity at 10 µM: OVCAR-3, single dose 10 μM, read-out: percent cell growth promotion; for GI50 / IC (TGI) / CC50: OVCAR-3, 5 log dose; for CC50: 48 h, read-out: LC50 (the source's name).
The subject of assay [7] is PC-3. Conditions: Homo sapiens; for activity at 10 µM: PC-3, single dose 10 μM, read-out: percent cell growth promotion; for GI50 / IC (TGI) / CC50: PC-3, 5 log dose; for CC50: 48 h, read-out: LC50 (the source's name).
Assay [8] deals with MDA-MB-468. Conditions: Homo sapiens; for activity at 10 µM: MDA-MB-468, MDA-MBA-468, single dose 10 μM, read-out: percent cell growth promotion; for GI50 / IC (TGI) / CC50: MDA-MB-468, 5 log dose; for CC50: 48 h, read-out: LC50 (the source's name). On the procedure:
The human tumor cell lines of the cancer-screening panel were grown in RPMI 1640 medium containing 5% fetal bovine serum and […] L-glutamine. For a typical screening experiment, cells are inoculated into 96 well microtiter plates in 100 ml at plating densities ranging from 5000 to 40,000 cells/well depending on the doubling time of individual cell lines. After cell inoculation, the microtiter plates are incubated at 37 °C, 5% CO2, 95% air and 100%
relative humidity for 24 h prior to addition of experimental drugs. After 24 h, two plates of each cell line are fixed in situ with TCA, to represent a measurement of the cell population for each cell line at the time of drug addition (Tz). Experimental drugs are dissolved in dimethyl sulfoxide at 400-fold the desired final maximum test concentration and stored frozen prior to use. At the time of drug addition, an aliquot of frozen concentrate is thawed and diluted to twice the desired final maximum test concentration with complete medium containing […] Gentamicin. Additional four, 10-fold or ½log serial dilutions are made to provide a total of five drug concentrations plus control. Aliquots of […] of these different drug dilutions are added to the appropriate microtiter wells already containing 100 ml of medium, resulting in the required final drug concentrations. Following drug addition, the plates are incubated for an additional 48 h at 37 °C, 5% CO2, 95% air, and 100% relative humidity. For adherent cells, the assay is terminated by the addition of cold TCA. Cells are fixed in situ by the gentle addition of […] of cold 50% (w/v) TCA (final concentration,10% TCA) and incubated for 60 min at 4 °C. The supernatant is discarded, and the plates are washed five times with tap water and air dried. Sulforhodamine B (SRB) solution (100 ml) at 0.4% (w/v) in 1% acetic acid is added to each well, and plates are incubated for 10 min at room temperature. After staining, unbound dye is removed by washing five times with 1% acetic acid and the plates are air dried. Bound stain is subsequently dissolved with 10 μM trizma base, and the absorbance is read on an automated plate reader at a wavelength of 515 nm. For suspension cells, the methodology is the same except that the assay is terminated by fixing settled cells at the bottom of the wells by gently adding […] of 80% TCA (final concentration, 16% TCA).
Using the seven absorbance measurements [time zero, (Tz), control growth, (C), and test growth in the presence of drug at the five concentration levels (Ti)], the percentage growth is calculated at each of the drug concentrations levels. Percentage growth inhibition is calculated as: [(Ti -Tz)/(C - Tz)] x 100 for concentrations for which Ti>/ ¼ Tz and [(Ti -Tz) / Tz] x100 for concentrations for which Ti <Tz.
Three dose response parameters are calculated for each experimental agent. Growth inhibition of 50% (GI50) is calculated from [(Ti -Tz)/(C - Tz)] x 100 =50, which is the drug concentration resulting in a 50% reduction in the net protein increase (as measured by SRB staining) in control cells during the drug incubation. The drug concentration resulting in total growth inhibition (TGI) is calculated from Ti ¼ Tz. The LC50 (concentration of drug resulting in a 50% reduction in the measured protein at the end of the drug treatment as compared to that at the beginning) indicating a net loss of cells following treatment is calculated from [(Ti - Tz) / Tz] x100 = -50. Values are calculated for each of these three parameters if the level of activity is reached; however, if the effect is not reached or is exceeded, the value for that parameter is expressed as greater or less than the maximum or minimum concentration tested.

SMILES strings stand for the structures.

Turning to `O=C(Nc1ccc(Nc2nncc3ccccc23)cc1)c1ccc(Cl)cc1` [Compound 5b, 4-Chloro-N-(4-(phthalazin-1-ylamino)phenyl)benzamide], the activity at 10 µM is 101% in assay [1]; 102% in assay [2]; 99.6% in assay [3]; 99.7% in assay [4]; 99.8% in assay [5]; 101% in assay [6]. Further, the activity at 10 µM worked out at 91.6% in assay [7] and 101% in assay [8].
On to `Cc1nnc(Nc2ccc(NC(=O)c3ccc(Cl)cc3)cc2)c2ccccc12` [Compound 5d, 4-Chloro-N-(4–(4-methylphthalazin-1-ylamino)phenyl)benzamide], for which the activity at 10 µM was 97.9% in assay [1]; 105% in assay [2]; 99% in assay [3]; 97.1% in assay [4]; 78.7% in assay [5]; 93.3% in assay [6]. Moreover, the activity at 10 µM in assay [7] is 72.6%; in assay [8] it was 104%.
On to `O=C(Nc1ccc(Cl)cc1)Nc1ccc(Nc2nncc3ccccc23)cc1` [Compound 6b, 1–(4-Chlorophenyl)-3–(4-(phthalazin-1-ylamino)phenyl)urea], for which the GI50 was 3.03 µM in assay [1]; 2840 nM in assay [2]; 3940 nM in assay [3]; 1520 nM in assay [4]; 2310 nM in assay [5]; 2570 nM in assay [6]. The GI50 in assay [7] was 2320 nM; in assay [8] it was 2570 nM. For the same compound, the IC (TGI) in assay [1] worked out at 19.3 µM; in assay [2], 11 µM; in assay [3] it was 16.5 µM; in assay [4] it was 11.5 µM; in assay [5] it was 6.82 µM; in assay [6], 10.3 µM. In addition, the IC (TGI) in assay [7] is 11 µM; in assay [8] it was 9.47 µM. In assay [1], the LC50 (concentration killing 50% of cells) is > 100 µM. Besides, the activity at 10 µM in assay [1] was 20.1%; in assay [2] it was 17.8%; in assay [3] it was 38.5%; in assay [4], 19.3%; in assay [5], 7.12%; in assay [6], 17.6%. Also, the activity at 10 µM was found to be 1.46% in assay [7] and 0.17% in assay [8]. Besides, the CC50 came to 45.8 µM in assay [2]; 50 µM in assay [3]; 40.7 µM in assay [4]; 24.7 µM in assay [5]; 70 µM in assay [6]; 55.4 µM in assay [7]. Moreover, the CC50 in assay [8] is > 100 µM.
Consider `Cc1nnc(Nc2ccc(NC(=O)Nc3ccc(Cl)cc3)cc2)c2ccccc12` [Compound 6e, 1–(4-Chlorophenyl)-3–(4-(4-methylphthalazin-1-ylamino)phenyl)urea], for which the GI50 in assay [1] is 3.24 µM; in assay [2] it was 2040 nM; in assay [3], 2170 nM; in assay [4] it was 1760 nM; in assay [5], 1850 nM; in assay [6], 1870 nM. The GI50 in assay [7] came to 3490 nM; in assay [8], 2840 nM. Besides, the IC (TGI) in assay [1] turned out to be 8.59 µM; in assay [2] it was 4.21 µM; in assay [3], 4.79 µM; in assay [4], 3.57 µM; in assay [5], 3.5 µM; in assay [6], 3.99 µM. The IC (TGI) turned out to be 11.9 µM in assay [7] and 7.43 µM in assay [8]. Also, the LC50 (concentration killing 50% of cells) in assay [1] amounted to 37.9 µM. In addition, the activity at 10 µM in assay [1] is 26.4%; in assay [2], 4.8%; in assay [3], -9.9%; in assay [4], 37.3%; in assay [5], 52.3%; in assay [6], 44.4%. Besides, the activity at 10 µM in assay [7] was found to be 22.8%; in assay [8], 6.44%. Also, the CC50 is 8.68 µM in assay [2]; 20 µM in assay [3]; 7.27 µM in assay [4]; 6.65 µM in assay [5]; 8.47 µM in assay [6]; 62.7 µM in assay [7]. Further, in assay [8], the CC50 was found to be 36.2 µM.
As to `O=C(Nc1ccc(Cl)cc1)Nc1ccc(Oc2nncc3ccccc23)cc1` [Compound 7b, 1–(4-Chlorophenyl)-3–(4-(phthalazin-1-yloxy)phenyl)urea], the GI50 turned out to be 2.81 µM in assay [1]; 2540 nM in assay [2]; 440 nM in assay [3]; 1120 nM in assay [4]; 1020 nM in assay [5]; 350 nM in assay [6]. Moreover, the GI50 in assay [7] was found to be 1640 nM; in assay [8] it was 750 nM. Moreover, the IC (TGI) in assay [1] was 11.5 µM; in assay [2], 6.27 µM; in assay [3] it was 2.31 µM; in assay [4] it was 3.16 µM; in assay [5], 2.81 µM; in assay [6], 1.15 µM. Moreover, the IC (TGI) was found to be 6.08 µM in assay [7] and 2.52 µM in assay [8]. Moreover, the LC50 (concentration killing 50% of cells) in assay [1] was > 100 µM. Moreover, the activity at 10 µM was 40% in assay [1]; 40.7% in assay [2]; 0.78% in assay [3]; 7.3% in assay [4]; -43.3% in assay [5]; -62.8% in assay [6]. Moreover, the activity at 10 µM in assay [7] is -29%; in assay [8] it was -76.2%. The CC50 came out at 36.9 µM in assay [2]; 9.69 µM in assay [3]; 8.93 µM in assay [4]; 6.56 µM in assay [5]; 3.95 µM in assay [6]; 35.6 µM in assay [7]. In assay [8], the CC50 was determined as 7.18 µM.
With `Cc1nnc(Oc2ccc(NC(=O)Nc3ccc(Cl)cc3)cc2)c2ccccc12` [Compound 7e, 1–(4-Chlorophenyl)-3–(4-(4-methylphthalazin-1-yloxy)phenyl)urea], the activity at 10 µM came to 61.5% in assay [1]; 91.8% in assay [2]; 92.6% in assay [3]; 79.4% in assay [4]; 70.2% in assay [5]; 69.8% in assay [6]. In addition, the activity at 10 µM in assay [7] turned out to be 39%; in assay [8], 68.6%.
